Test results: patent publication US7691387B2, “Cinnamomi and poria composition, method to prepare same and uses thereof” (Jiangsu Kanion Pharmaceutical Co., Ltd, priority 2000, dated 2010)
Like-named read-outs stand apart in the source and are kept apart here.

How the values were obtained:
[1] = cited from earlier work
[2] = system: uterine smooth muscle induced by oxytocin; experiment: Contraction of uterine smooth muscle induced by oxytocin; design: species or system Wister rats; contraction frequency: unit not given here; conditions: for contraction frequency: oxytocin 10 mu/ml alone; for contraction activity / contraction activity, controlling % / contraction frequency, controlling % / contraction range / contraction range, controlling %: oxytocin alone
Description: (§1) Twenty-four hours prior to the experiment, intramuscularly inject non-pregnant female rats with a 0.3 mg/kg weight-dose of Dihydrotheelin. The effect artificially puts them in estrus period so as to increase their sensitivity to the CCP. Decapitate the rats, rapidly paunch, take out the uterus and remove the fat. Cut the uterus in 2 cm of length and put it directly in the homothermic flume with 9 ml of the Locke's solution. One end of the uterus must be fixed on the crotchet of the L shaped ventilating pipe and the other end connected to the Muscle Tension Transducer. Keep the temperature of the homothermic flume at 32° C. Continuously emit oxygen into the fume, at least 60-80 bladders per minute and add in 1 ml of the previous solution with a different concentration. After recording a segment of normal contraction curve, observe the different phases before-and-after administering the drug. Respectively, record the contraction frequency and range. Observe from 1 to 10, 10 to 20, and 20 to 30 minutes before-and-after adding the drug solution. Count the uterine activity, and record data between control groups before-and-after administering the drug.
Observe CCP's effect in smooth muscle contraction of rats' extracorporeal uterine induced by oxytocin. Respectively, record the contraction frequency and range. Observe from 1 to 10, 10 to 20, and 20 to 30 minutes before-and-after adding the drug solution. Count the uterine activity and the inhibitory percentage. Record data as previously done.
Animals' Grouping: randomly divide Wister female rats' extra-corporeal uteruses into normal saline control group (NSG) and CCP's group. The CCP's group is formed by 4 subgroups with seven uteruses each. The dose of CCP's extract is respectively 5.4, 2.7, 1.3, and 0.6 mg/ml.
Results: after adding 10 mu/ml oxytocin to the normal uterine smooth muscle there is an increase of the contraction frequency and the uterine activity. The contraction range is also affected reaching its peak for about 10 min to then stabilize on the level. After 40 minutes, the effect gradually drops. After the oxytocin reacts for 10 minutes, add in a different dose of CCP's extract, and compare the possible differences between the CCP's group and the oxytocin's group. A 5.4, 2.7 mg/ml dose of CCP's extract can control the increase of uterine activity induced by oxytocin, and mainly reduce contraction frequency of uterine smooth muscle (See Table 8 and 13).

streptococcus faecalis = conditions: cited from earlier work
bacillus subtilis = conditions: cited from earlier work
[3] = cited from earlier work; remark: listed apart in the source
coliform = conditions: cited from earlier work
[4] = system: blood pressure of anaesthetized dog; conditions: mainline 80-120 mg/kg; cited from earlier work
tinea germ between toes = conditions: cited from earlier work
golden staphylococcus = conditions: cited from earlier work
[5] = system: rheumatism, stomachache, other pains, eczema, dermatitis; conditions: cited from earlier work
[6] = system: rats' Whole Blood Ratio Viscosity; experiment: Whole Blood Ratio Viscosity of rats; format: in vivo, Wister rats; conditions: 0.2 g/kg, 5 days
Description: Drug dispensation: put a 12.5 g extract of CCP in a 100 ml solution of normal saline and mix adequately. The drug concentration is 0.125 g/ml (containing 0.5 g/ml of crude drugs). Put a 25 extract of CCP in 100 ml of normal saline. The drug concentration is 0.25 g/ml (containing […] of crude drugs). Put a 50 extract of CCP in a 100 ml of normal saline and mix adequately. The drug concentration is 0.5 g/ml (containing 2 g/ml crude drugs).
Persantine: put 2 in normal saline and mix adequately. The drug concentration will be 20 mg/ml.
Experimental processing: Randomly divide male Wister rats weighing 250 to 300 g into five groups with eight rats in each group. Low, medium and high dose groups can take the extract of CCP in a concentration of 10 ml/kg. The concentration of crude drugs is 5 g/kg, 10.0 g/kg and 20 g/kg respectively. The control group takes normal saline of the same volume; positive medicine group takes 0.2 g/kg, which is 10 ml/kg of persantine. The drug must be administered once a day for five consecutive days. After an hour and a half of administering the drug on the fifth day, lightly anaesthetize the […] with ether. Record 40 test tubes, and put 0.1 ml heparin in each. Take blood from the abdominal aorta of the […] and fill each tube with 1 ml of blood. Then use XN-5 Type Blood Viscometer to determine the Whole Blood Ratio Viscosity.

mice bone marrow cells = experiment: Micronucleus test; format: in vivo, ICR mouse
Description: 30 mice were randomly divided into 5 groups, each group contained 6 animals. Three of the groups were drug-groups and animals in them were given to CCP by gastric gavage at doses of 2.5 g/kg/day, 1.25 g/kg/day and 0.625 g/kg/day for 2 days. (LD50 of CCP from an acute toxicity test was 5 g/Kg, we adopted a half dose for our study). The fourth group is given to normal saline (0.5 ml/mice) as a negative control group. The last group was given to cyclophosphamide(CP) at 40 mg/Kg via abdominal cavity injection as a positive control group.
Animals were killed 24 hours after administration. Both femurs of the mice were taken for sampling. Femurs were pressed to move out the marrow, with a drop of calf serum added to it, smear the marrow on a plate. After the smeared plate was fixed in the solution of methyl for 10 minutes, it was dyed with the Giemsa's method and observed under the oil lens of a microscope. In the principle of double-blinded study, PCE and MNPCE cells were counted. 1000 PCE and MNPCE cell were counted for each mice, calculated the ratio of micronuclei over the 1000 cells. The ratio of micronuclei represents the dose-effectiveness relation. The data was analyzed with statistical t test.

[7] = system: rats' extra-corporeal uterine smooth muscle; experiment: Contraction of normal rats' extra-corporeal uterine smooth muscle; design: species or system Wister rats; conditions: 7 μg/ml
Description: a) Put 5.4g extract of CCP in 100 ml of the Locke's solution and mixed thoroughly. The drug concentration results in 54 mg/ml. Take 1 ml of this solution, put it into a homothermic flume with 9 ml of the Locke's solution. The drug concentration from this mixture contains 5.4 mg/ml. Likewise, put 2.7 g extract of CCP in 100 ml of the Locke's solution and mixed thoroughly. Take 1 ml of this mixture, combine it with 9 ml of Locke's solution and the drug concentration will result in 2.7 mg/ml. Mix up 100 ml of the Locke's solution with a 1.9 g CCP's extract. Take 1 ml of this mixture, combine it with 9 ml of the Locke's solution and the drug concentration will result in 1.9 mg/ml. Mix 200 ml of the Locke's solution with 2.6 of CCP's extract, the concentration will result in 13 mg/ml. Take 1 ml of this mixture, combine it with 9 ml of the Locke's solution which results in a drug concentration of 1.3 mg/ml. Mix 200 ml or 300 ml of the Locke's solution with 1.8 CCP's resulting in a drug concentration of 9 mg/ml and 6 mg/ml respectively. Take 1 ml of this mixture into homothermic flume with 9 ml of the Locke's solution. The result is a drug concentration containing 0.9 mg/ml and 0.6 mg/ml respectively
9.0 of NaCL, 0.42 of KCL, 0.24 of CaCL2, 0.2 of NaHCO3 and 1.0 g of glucose. Mixed with distilled water until obtaining 1000 ml. PH is about 7.
as §1
Animals' Grouping: randomly divide the Wister female rats' extracorporeal uteruses into a normal saline control group (NSG) and a CCP group (CCPG). […]

[8] = cyclophosphamide 40 mg/Kg, per 1000 cells

N#C[C@H](O[C@@H]1O[C@H](CO[C@@H]2O[C@H](CO)[C@@H](O)[C@H](O)[C@H]2O)[C@@H](O)[C@H](O)[C@H]1O)c1ccccc1 [Amygdalin, Benzeneacetonitrile, α-[(6-O-β-D-glucopyranosyl-β-D-glucopyranosyl)oxy]-, (R)—]
volume in which 1 g resolves ([1]; boiling ethanol): 11 mL | volume in which 1 g resolves ([1]; ethanol): 900 mL | volume in which 1 g resolves ([1]; water): 12 mL

CC[C@H](C)[C@@H]1NC(=O)[C@H](Cc2ccc(O)cc2)NC(=O)[C@@H](N)CSSC[C@@H](C(=O)N2CCC[C@H]2C(=O)N[C@@H](CC(C)C)C(=O)NCC(N)=O)NC(=O)[C@H](CC(N)=O)NC(=O)[C@H](CCC(N)=O)NC1=O [Oxytocin]
contraction frequency ([2]; after adm. 1-10 mins): 11.7 ± 1.5 | contraction frequency ([2]; after adm. 10-20 mins): 11.6 ± 1.9 | contraction frequency ([2]; after adm. 20-30 mins): 10.9 ± 1.17 | contraction frequency ([2]; before adm.): 7.0 ± 1.3 | contraction activity ([2]; after adm. 1-10 mins): 118.8 ± 77.6% | contraction activity, controlling % ([2]; after adm. 1-10 mins): −108.8% | contraction frequency, controlling % ([2]; after adm. 1-10 mins): −67.1% | contraction range ([2]; after adm. 1-10 mins): 9.7 ± 5.0 mm | contraction range, controlling % ([2]; after adm. 1-10 mins): −21.3% | contraction activity ([2]; after adm. 10-20 mins): 129.6 ± 97.3% | contraction activity, controlling % ([2]; after adm. 10-20 mins): −127.8% | contraction frequency, controlling % ([2]; after adm. 10-20 mins): −65.7% | contraction range ([2]; after adm. 10-20 mins): 10.4 ± 5.7 mm | contraction range, controlling % ([2]; after adm. 10-20 mins): −30.0% | contraction activity ([2]; after adm. 20-30 mins): 111.2 ± 86.5% | contraction activity, controlling % ([2]; after adm. 20-30 mins): −95.4% | contraction frequency, controlling % ([2]; after adm. 20-30 mins): −55.7% | contraction range ([2]; after adm. 20-30 mins): 9.7 ± 6.1 mm | contraction range, controlling % ([2]; after adm. 20-30 mins): −21.3% | contraction activity ([2]; before adm.): 56.9 ± 21.6% | contraction range ([2]; before adm.): 8.0 ± 2.6 mm | contraction range, controlling % ([2]; column Before adm.): 8.8% | contraction activity ([2]; column Oxytocin): 84.7 ± 22.0% | contraction activity, controlling % ([2]; column Oxytocin): −48.9% | contraction frequency, controlling % ([2]; column Oxytocin): −91.4% | contraction range ([2]; column Oxytocin): 7.3 ± 3.2 mm

COc1ccc(C(C)=O)c(O)c1 [Paeonol, Ethanone, 1-(2-hydroxy-4-methoxyphenyl)-]
controlling consistency (streptococcus faecalis): 500 µg/mL | controlling consistency (bacillus subtilis): 200 µg/mL | solubility in water [3]: resolve a little in water | controlling consistency (coliform): 200 µg/mL | duration of reduced pressure [4]: 10 to 12 min | reduce pressure [4]: 41-61% | controlling consistency (tinea germ between toes): 250 µg/mL | controlling consistency (golden staphylococcus): 500 µg/mL | validity rate ([5]; 261 cases with rheumatoid arthritis, lumbago, bellyache, postoperative & cancer pain): 92% | validity rate ([5]; inject 50˜100 mg, rheumatism, other pains, eczema, dermatitis): 83%

OCCN(CCO)c1nc(N2CCCCC2)c2nc(N(CCO)CCO)nc(N3CCCCC3)c2n1 [Persantine]
Whole Blood Ratio Viscosity, high shear [6]: 12.10 ± 1.90 | Whole Blood Ratio Viscosity, low shear [6]: 16.12 ± 6.92

O=P1(N(CCCl)CCCl)NCCCO1 (stereo not shown) [Positive control, cyclophosphamide]
number of Micronuclei (mice bone marrow cells; cyclophosphamide 40 mg/Kg abdominal cavity injection, 6000 PCE cells): 381 | incidence of micronuclei, Range (mice bone marrow cells; [8]): 43-98 | incidence of micronuclei, X ± SD (mice bone marrow cells; [8]): 63.5000 ± 20.6373 | incidence of micronucleus (mice bone marrow cells; cyclophosphamide injection 40 mg/Kg): obviously higher than the negative control

Pregnendione [Progestin]
contraction frequency of rats' uterine smooth muscle [7]: can control contraction frequency | contraction frequency ([7]; after adm. 0-20 mins): 6.3 ± 2.5 time/10 mins | contraction activity ([7]; after adm. 1-10 mins): 47.2 ± 22.9% | contraction activity, controlling % ([7]; after adm. 1-10 mins): 31.9% | contraction frequency ([7]; after adm. 1-10 mins): 6.1 ± 2.0 time/10 mins | contraction frequency, controlling percentage ([7]; after adm. 1-10 mins): 23.8% | contraction range ([7]; after adm. 1-10 mins): 7.4 ± 2.3 mm | contraction range, controlling percent ([7]; after adm. 1-10 mins): 14.0% | contraction activity ([7]; after adm. 10-20 mins): 46.3 ± 27.9% | contraction activity, controlling % ([7]; after adm. 10-20 mins): 33.2% | contraction frequency, controlling percentage ([7]; after adm. 10-20 mins): 21.3% | contraction range ([7]; after adm. 10-20 mins): 7.0 ± 2.6 mm | contraction range, controlling percent ([7]; after adm. 10-20 mins): 18.6% | contraction activity ([7]; after adm. 20-30 mins): 35.2 ± 22.5% | contraction activity, controlling % ([7]; after adm. 20-30 mins): 49.2% | contraction frequency ([7]; after adm. 20-30 mins): 5.0 ± 2.4 time/10 mins | contraction frequency, controlling percentage ([7]; after adm. 20-30 mins): 37.5% | contraction range ([7]; after adm. 20-30 mins): 7.0 ± 2.8 mm | contraction range, controlling percent ([7]; after adm. 20-30 mins): 18.6% | contraction activity ([7]; before adm.): 69.3 ± 20.9% | contraction frequency ([7]; before adm.): 8.0 ± 0.8 time/10 mins | contraction range ([7]; before adm.): 8.6 ± 2.2 mm
